The METLIN SMRT retention time set (Domingo-Almenara et al. 2019)

Assay: gradient 5% acetonitrile 3 min, to 50% in 2 min, to 85% in 15 min, held 3 min, 100 µL/min
Settings: column: Zorbax Extend-C18 2.1 x 50 mm; eluents: water / acetonitrile, 0.1% formic acid
Summary of the method: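 Using water and acetonitrile that each contained 0.1% formic acid, mixtures of ~100 pure standards were separated at 100 μL/min on a Zorbax Extend-C18 column (2.1 × 50 mm, 1.8 μm). The HPLC fed a quadrupole time-of-flight mass spectrometer working in positive and negative ionization mode, with dead and dwell volumes of 40 μL and 900 μL. Data were acquired over 3 months. Retention time was read from computationally picked adduct peaks after manual inspection of each.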

CCOc1ccccc1-c1noc(Cn2c(=O)n(-c3cccc(C)c3)c(=O)c3sccc32)n1
RP-LC retention time: 1010 s

COCCCNC(=O)C1(CCO)CCN(Cc2ccccc2)C1 (stereo not drawn)
RP-LC retention time: 560 s

Cc1ccc(C)c(-c2cc3c4nn(CC(=O)NC(C)C)c(=O)n4ccn3n2)c1
RP-LC retention time: 856 s

CCOc1ccc(CCNC(=O)c2snc(C(=O)NCc3ccccc3)c2N)cc1OCC
RP-LC retention time: 1090 s

CCNC(=O)C1CCCN(c2nc3ncn(CC(=O)Nc4ccc(OCC)cc4)c(=O)c3s2)C1 (stereo not drawn)
RP-LC retention time: 688 s

CNC(=O)N1CCCN(C2=NS(=O)(=O)C(c3ccccc3)=C2C)CC1
RP-LC retention time: 594 s

Nc1nc(N2CCC3(CC2)OCCO3)ncc1C(=O)NCc1ccccc1F
RP-LC retention time: 651 s

O=c1c2nnn(-c3cccc(F)c3)c2ncn1Cc1cccnc1
RP-LC retention time: 587 s

O=C(c1csc(S(=O)(=O)N2CCC(C(=O)N3CCCCCC3)CC2)c1)N1CCCCCC1
RP-LC retention time: 876 s

COc1cccc(-c2noc(C3CCCN3C(=O)Nc3ccccc3)n2)c1 (stereo not drawn)
RP-LC retention time: 961 s

C=CCNC(=O)c1cc(=O)[nH]c2c(Cl)cccc12
RP-LC retention time: 641 s

COc1ccccc1Cc1noc(C2CN(C(=O)c3cncc(Br)c3)C2)n1
RP-LC retention time: 777 s

CCSc1nnc(NC(=O)Cn2c(-c3cnccn3)nc3ccccc32)s1
RP-LC retention time: 701 s

CCc1noc(COC2CCCN(C(=O)NCc3ccco3)C2)n1 (stereo not drawn)
RP-LC retention time: 722 s

COc1ccc(CC(=O)Nc2c(-c3ccc(F)cc3)nc3ccccn23)cc1OC
RP-LC retention time: 597 s

O=c1n(CCc2ccccc2)nc2ccc(S(=O)(=O)N3CCOCC3)cn12
RP-LC retention time: 809 s

Cc1cccc(OCC(=O)Nc2nnc(C3CC(=O)N(c4ccccc4)C3)o2)c1C (stereo not drawn)
RP-LC retention time: 726 s

COc1ccc(NC(=O)Cn2c(=O)c3cc(C4CC4)nn3c3ncccc32)cc1Cl
RP-LC retention time: 807 s

CCN(CC)CCCNC(=O)C1CCN(c2nc3cccnc3s2)CC1
RP-LC retention time: 570 s

Cc1ccc2oc(C(=O)NCC(c3ccccc3)N(C)C)cc(=O)c2c1 (stereo not drawn)
RP-LC retention time: 619 s

COc1ccc2[nH]cc(CN3CC[C@H](c4n[nH]c(C)n4)[C@H](N(C)C)C3)c2c1
RP-LC retention time: 547 s

CCN1C=C(C(=O)OCc2ccc(Cl)cc2)C(C)=NS1(=O)=O
RP-LC retention time: 1060 s

CC(C)CCNS(=O)(=O)c1ccc(-c2cc(C(F)(F)F)on2)o1
RP-LC retention time: 1090 s

COc1ccc(NC(=O)N2c3ccccc3CC2c2nc(C(C)C)no2)cc1OC (stereo not drawn)
RP-LC retention time: 935 s

CCn1cc(CC(=O)NCc2ccc(OC)cc2)c2cccnc21
RP-LC retention time: 716 s

CC1CN(C(=O)CCC(=O)N2CCN(c3ccccn3)CC2)c2ccccc2O1 (stereo not drawn)
RP-LC retention time: 623 s

COc1ccc(C(=O)Nc2cccn3c(C4CCC4)nnc23)cc1F
RP-LC retention time: 769 s

CCc1ccc(N2CC(c3noc(-c4ccccn4)n3)CC2=O)cc1 (stereo not drawn)
RP-LC retention time: 829 s

Cc1nc2nc(-c3ccc(C(C)(C)C)cc3)nn2c(C)c1CC(=O)Nc1ccc(Br)cc1
RP-LC retention time: 1220 s

Cc1nc(C)c(CCNS(=O)(=O)c2cc(C)c(C)cc2C)s1
RP-LC retention time: 695 s

COc1cccc(-n2c(=O)c(C(=O)Nc3ccccc3Cl)c(O)c3cccnc32)c1
RP-LC retention time: 1290 s

Cc1ccc(N2CCN(Cc3nc(-c4ccc(N5CCOCC5)nc4)no3)CC2)cc1
RP-LC retention time: 791 s

Cc1ccc(NC(=O)CCc2ccc3nc[nH]c3c2)cc1Cl
RP-LC retention time: 646 s

CCOC(=O)c1nc(Nc2cc(C)c(Cl)cc2OC)c2ccccc2n1
RP-LC retention time: 1130 s

COC(=O)C1CCN(c2ccnc3c2c(=O)n(C)c(=O)n3C)CC1
RP-LC retention time: 660 s

Cc1cc(C)n(Cc2c(C(=O)NCC3Cn4cccc4C(=O)N3C)noc2C)n1 (stereo not drawn)
RP-LC retention time: 688 s

O=C(NCc1cccnc1-c1ccc(F)cc1)c1cc(F)cc(F)c1
RP-LC retention time: 710 s

Cc1ccc(NC(=O)N2CCC(c3nc(CCNC(=O)C(C)C)cs3)CC2)cc1
RP-LC retention time: 750 s

COc1ccc(-c2cn3c(CC(=O)N4CCN(C5CCCCC5)CC4)csc3n2)cc1OC
RP-LC retention time: 594 s

Cc1noc(C)c1CNC(=O)c1ccc2c(c1)OCO2
RP-LC retention time: 683 s

O=C(NC1(c2nc(-c3cccnc3)no2)CCCCC1)c1ccc(F)c(Cl)c1
RP-LC retention time: 1030 s

CCc1ccc(NC(=O)c2sc(-c3cccn3CC)nc2C)cc1
RP-LC retention time: 1260 s

COc1ccc(CCC(=O)N2CCC(n3nnc4cc(F)ccc4c3=O)CC2)cc1
RP-LC retention time: 784 s

CN(C)c1cc(C(=O)NC2CC2)c2cccc(Cl)c2n1
RP-LC retention time: 746 s

O=[N+]([O-])c1ccc(/C=C\c2ccncc2)cc1
RP-LC retention time: 685 s

O=C(NCC1CC1)c1cccc(N2CCNC(c3ccccc3)C2)n1 (stereo not drawn)
RP-LC retention time: 619 s

Cc1cccc(NC(=O)C2CC(=O)N(c3ccc4c(c3)CCN4C(=O)C3CC3)C2)c1 (stereo not drawn)
RP-LC retention time: 816 s

CC1=C(C(=O)OCCCc2ccccc2)C(c2cccs2)NC(=O)N1 (stereo not drawn)
RP-LC retention time: 882 s

Cc1cccc(-n2ccn(CC#N)c(=O)c2=O)c1C
RP-LC retention time: 639 s

COc1cc(C(C)=O)ccc1OCCCN1CCC(c2noc3cc(F)ccc23)CC1
RP-LC retention time: 720 s

Cn1c(=O)c(C(=O)NC2CC2)nc2cccnc21
RP-LC retention time: 613 s

COc1ccc(C(=O)NCc2cnoc2-c2ccc(F)cc2)cc1OC
RP-LC retention time: 820 s

COC(=O)C(Cc1ccccc1)NC(=O)Nc1c(-c2ccc(C)cc2)nc2ccccn12 (stereo not drawn)
RP-LC retention time: 686 s

CCCC(C)NC(=O)CN1c2ccc(F)cc2-c2ccccc2S1(=O)=O (stereo not drawn)
RP-LC retention time: 950 s

Cc1ccc(C(=O)NCCc2nc3cccnc3n2CC(C)C)cc1
RP-LC retention time: 716 s

Cc1ncsc1CN1CC(Oc2ccc(-c3noc(C4CC4)n3)cc2)C1
RP-LC retention time: 652 s

CN(CCc1noc(COc2ccccc2)n1)C(=O)Nc1ccc(F)c(Cl)c1
RP-LC retention time: 966 s

COc1ccc(NC(=O)NCC(=O)N2CCc3ccccc32)c(OC)c1
RP-LC retention time: 762 s

O=C(c1cc2c(s1)-c1ccsc1CC2)N1CCN(c2ccccn2)CC1
RP-LC retention time: 698 s

O=C(NCCN1CCOCC1)c1ccc(CS(=O)Cc2cccc(Cl)c2)o1 (stereo not drawn)
RP-LC retention time: 601 s

Cc1nc(-c2csc(S(=O)(=O)N3CCCC(C(=O)Nc4cccc(Cl)c4)C3)c2)no1 (stereo not drawn)
RP-LC retention time: 1040 s

CC(C)CCNC(=O)N1CCN(c2cc(-c3ccccc3)ncn2)CC1
RP-LC retention time: 658 s

COc1ccc(-c2nnc(-c3ccccc3Cl)o2)cc1S(=O)(=O)N1CCCCCC1
RP-LC retention time: 1100 s

Cc1cc(C)cc(NC(=O)Cn2ccc3ccn(C)c3c2=O)c1
RP-LC retention time: 829 s

Cc1ccc(S(=O)(=O)N2CC(=O)N(c3cccc(F)c3)C(C)(C(=O)NCc3ccccc3)C2)cc1 (stereo not drawn)
RP-LC retention time: 948 s

CC(C)(C)n1nnnc1C1CC2(CCOCC2)C(=O)N1Cc1cc(F)ccc1F (stereo not drawn)
RP-LC retention time: 793 s

O=C(NC1CCCC1)c1ccc2c(c1)CC(=O)N2Cc1ccc(F)cc1
RP-LC retention time: 824 s

CCN1C(=O)Cc2cc(C(=O)NCc3ccccc3)ccc21
RP-LC retention time: 706 s
